Test results reported in patent US6900193B1, “Structural modification of 19-norprogesterone I: 17-α-substituted-11-β-substituted-4-aryl and 21-substituted 19-norpregnadienedione as new antiprogestational agents” (The United States of America as represented by the …, priority 1996, dated 2005).
“Also recorded” adds a separate entry of the source.

How the values were obtained:
[1] = target: T1, glucocorticoid receptor (estrogen-primed rabbit thymus) (Oryctolagus cuniculus, UniProt P59667); assay: Relative binding affinity, glucocorticoid receptor; settings: for BINDING AFFINITY Glucocortic: Table 2
T1 construct: preparation of cytosols for the progesterone and glucocorticoid receptor assays; from tissue; host or cells: thymus of estradiol-primed immature female New Zealand White rabbits (cytosol)
T1 sequence (P59667 1-772): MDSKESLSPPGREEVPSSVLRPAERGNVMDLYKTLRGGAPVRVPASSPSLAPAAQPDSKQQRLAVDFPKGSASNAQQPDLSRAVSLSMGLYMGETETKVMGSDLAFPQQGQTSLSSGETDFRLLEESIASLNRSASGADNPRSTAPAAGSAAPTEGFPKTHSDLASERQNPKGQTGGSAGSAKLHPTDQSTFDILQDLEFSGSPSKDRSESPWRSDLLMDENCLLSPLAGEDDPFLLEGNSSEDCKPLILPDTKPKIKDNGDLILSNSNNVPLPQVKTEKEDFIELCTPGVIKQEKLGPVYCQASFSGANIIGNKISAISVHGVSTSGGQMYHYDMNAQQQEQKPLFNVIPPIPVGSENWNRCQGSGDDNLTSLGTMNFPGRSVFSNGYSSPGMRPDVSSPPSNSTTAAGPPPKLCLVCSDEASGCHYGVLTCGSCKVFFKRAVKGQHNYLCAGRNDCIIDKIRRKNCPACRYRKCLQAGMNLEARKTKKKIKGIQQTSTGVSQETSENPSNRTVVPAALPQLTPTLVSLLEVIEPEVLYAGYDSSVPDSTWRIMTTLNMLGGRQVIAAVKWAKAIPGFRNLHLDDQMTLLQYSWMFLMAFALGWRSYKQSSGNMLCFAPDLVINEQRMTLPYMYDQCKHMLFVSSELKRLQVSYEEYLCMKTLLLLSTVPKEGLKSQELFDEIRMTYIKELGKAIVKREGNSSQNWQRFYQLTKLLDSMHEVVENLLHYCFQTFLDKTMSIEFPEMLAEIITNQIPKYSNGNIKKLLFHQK
Description: (§1) Relative Binding Affinities for the Progesterone and Glucocorticoid Receptors
(§2) Uteri and thymus glands were obtained from estradiol-primed immature female rabbits of the New Zealand White strain for preparation of cytosols for the progesterone and glucocorticoid receptor assays, respectively. Tissues were excised and immediately placed in ice cold TEGDM buffer (10 mM Tris, pH 7.4; 1.5 mM EDTA; 10% glycerol vol/vol/; 1 mM dithiothreitol [DTT]; and 20 mM sodium molybdate). The tissues were dissected free of connective tissue and fat, weighed and minced finely. Minced tissues were homogenized in 3 volumes TEGDM/gm with four 10 second bursts of a VirTis Cyclone set at half maximum speed with a 30 second cooling period (in ice) between bursts. Homogenates were centrifuged at 109,663 g at 4° C. for 1 hour to yield the soluble cytosol fiction. Aliquots of cytosol were snap frozen and stored at −75° C.
(§3) All binding assays were carried out at 2-6° C. for 16-18 hours. The following radioactive ligands were used: [1,2-^3H(N)]-progesterone (50.0 Ci/mmole) for the progesterone receptor (PR). […] For the progesterone receptor RBA assays 0.02 ml uterine cytosol or TEDGM buffer, 0.05 ml of various concentrations of test compounds or progesterone, 0.13 ml TEGDM buffer and 0.05 ml [^3H]-progesterone were added to duplicate tubes. For the glucocorticoid receptor RBA assays 0.1 ml thymus cytosol or TEDGM buffer, 0.05 ml of various concentrations of test compounds or dexamethasone, 0.05 ml TEGDM buffer and 0.05 ml [3H]-dexamethasone were added to duplicate tubes. For the estrogen receptor RBA assays 0.05 ml uterine cytosol, 0.1 ml TEGDM buffer, 0.05 ml of various concentrations of test compounds or estradiol and 0.05 ml [^3H]-estradiol were added to duplicate tubes. The concentrations of the test compounds, progesterone, dexamethasone and estradiol ranged from 0.05 to 100 nM and the concentrations of the competitors ranged from 0.5 to 500 nM. Total binding was measured at radioligand concentrations of 3.5 nM and nonspecific binding was measured in the presence of a 200-fold excess of unlabeled progesterone (PR), dexamethasone (GR) or diethylstilbestrol (ER), respectively.
(§4) In all incubations bound and free ligand were separated using dextra-coated charcoal (DCC). A 0.1 ml aliquot of DCC (0.5% charcoal/0.05% Dextran T-70) was added to each tube. The tubes were vortexed and incubated on ice for 10 minutes. Five-tenths ml TEG buffer (without DTT or molybdate) was then added to all tubes to improve supernatant recovery following centrifugation. The charcoal was pelleted by centrifugation at 2,100 g for 15 minutes at 4° C. The supernatants containing the [^3H]-steroid receptor complexes were decanted into vials containing 4 ml Optifluor (Packard Instrument Co.), vortexed, equilibrated in a liquid scintillation counter for 30 minutes and then counted for 2 minutes. This provided the quantity of receptor bound [^3H]-steroid at each competitor concentration.

[2] = test system: progesterone-induced endometrial proliferation; assay: AntiClauberg test; type: in vivo, rabbit; set-up: key to ANTIPROGESTATIONAL Anti-Clauberg: relative oral potency vs. reference compound set to 100; settings: oral; for BIOLOGICAL ACTIVITY antiClauberg: Table 2
Description: AntiClauberg Test (Clauberg, C., Zentr. Gynakol., 54:2757-2770 (1930)) Immature female rabbits of the New Zealand White breed (approx. 1 kg body weight) were maintained under standard laboratory conditions and received a subcutaneous injection of 5 μg estradiol in 10% ethanol/sesame oil daily for 6 consecutive days. Twenty-four hours after the last dose of estradiol (day 7) animals received progesterone by subcutaneous injection (0.8 mg/day) and the experimental compound in appropriate vehicle (usually 10% ethanol/sesame oil) orally or subcutaneously for five consecutive days. One group of rabbits received progesterone only. Twenty-four hours after the last dose all animals were sacrificed for removal of the uterus which was cleaned of all fat and connective tissue, weighed to the nearest 0.2 mg and placed in 10% neutral buffered formalin for subsequent histological processing. Five micron sections stained with hematoxylin and eosin (H&E) were evaluated microscopically for the degree of endometrial glandular proliferation according to the method of McPhail (McPhail, supra). The percent inhibition of endometrial proliferation at each dose level of the experimental compound was derived by comparison with the progesterone-stimulated animals alone.

[3] = target: T2, progesterone receptor (estrogen-primed rabbit uterus) (Oryctolagus cuniculus, UniProt P06186); assay: Relative binding affinity, progesterone receptor; settings: for binding affinities compared with the standard, compound 69B: progesterone receptor implied (rabbit or human isoform A not specified); for BINDING AFFINITY Progester: Table 2
T2 construct: preparation of cytosols for the progesterone and glucocorticoid receptor assays; from tissue; host or cells: uterus of estradiol-primed immature female New Zealand White rabbits (cytosol)
T2 sequence (P06186 1-930): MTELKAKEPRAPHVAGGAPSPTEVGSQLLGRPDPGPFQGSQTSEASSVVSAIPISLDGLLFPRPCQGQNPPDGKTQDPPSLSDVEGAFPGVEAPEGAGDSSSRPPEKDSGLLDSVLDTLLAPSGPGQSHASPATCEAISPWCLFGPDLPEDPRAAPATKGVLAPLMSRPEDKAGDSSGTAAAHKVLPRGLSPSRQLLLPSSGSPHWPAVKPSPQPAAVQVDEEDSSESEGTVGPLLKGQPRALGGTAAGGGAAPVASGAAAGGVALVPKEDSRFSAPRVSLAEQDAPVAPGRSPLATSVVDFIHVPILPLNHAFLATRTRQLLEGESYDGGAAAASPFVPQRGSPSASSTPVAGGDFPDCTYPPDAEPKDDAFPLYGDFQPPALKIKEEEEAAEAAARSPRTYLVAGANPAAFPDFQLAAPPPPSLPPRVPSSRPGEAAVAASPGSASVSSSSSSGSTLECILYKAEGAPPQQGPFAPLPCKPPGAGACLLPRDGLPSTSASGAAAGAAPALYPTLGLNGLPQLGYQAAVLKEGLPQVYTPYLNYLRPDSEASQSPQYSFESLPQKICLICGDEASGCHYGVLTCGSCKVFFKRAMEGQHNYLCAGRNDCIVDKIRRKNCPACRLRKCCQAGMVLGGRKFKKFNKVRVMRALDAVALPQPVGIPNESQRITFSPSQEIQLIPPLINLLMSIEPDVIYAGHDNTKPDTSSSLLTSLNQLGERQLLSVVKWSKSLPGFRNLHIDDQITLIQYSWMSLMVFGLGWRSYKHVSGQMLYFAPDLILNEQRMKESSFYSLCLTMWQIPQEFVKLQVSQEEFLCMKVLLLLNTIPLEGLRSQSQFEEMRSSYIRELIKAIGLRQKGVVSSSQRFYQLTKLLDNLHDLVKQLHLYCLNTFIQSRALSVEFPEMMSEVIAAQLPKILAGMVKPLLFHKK
Description: as §1, §2, §3, §4

[4] = estrogen-primed rabbit thymus, dexamethasone = 100%
[5] = estrogen-primed rabbit uterus, progesterone = 100%

Molecule	RELATIVE BINDING AFFINITY Glucocorticoid [1, 4] [%]	binding affinity for the glucocorticoid receptor, in words ([1]; rabbit thymus, versus CDB-2914 (69B) where stated)	ANTIPROGESTATIONAL Anti-Clauberg ([2]; relative potency, CDB-2914 = 100 (assigned))	antiprogestational potency compared to the lead compound (CDB-2914), oral antiClauberg test ([2]; versus CDB-2914) [times]	antiClauberg / oral antiprogestational activity, in words ([2]; versus the standard 69B)	RELATIVE BINDING AFFINITY Progesterone [3, 5] [%]	binding affinities compared with the standard, compound 69B [3]	BINDING AFFINITY Glucocortic [1, 4] [%]	BIOLOGICAL ACTIVITY antiClauberg ([2]; CDB-2914 = 100 (assigned))	BINDING AFFINITY Progester [3, 5] [%]
COCC(=O)[C@@]1(OC(C)=O)CC[C@H]2[C@@H]3CCC4=CC(=O)CCC4=C3[C@@H](c3ccc(N(C)C)cc3)C[C@@]21C [Compound 38, 17α-acetoxy-21-methoxy-11β-(4-N,N-dimethylaminophenyl)-19-norpregna-4,9-diene-3,20-dione]	52	substantial reduction in glucocorticoid binding affinity; also recorded: low binding affinity	361	3.61	greater activity than the standard	103	binding affinities greater than that observed for the standard			
CC(=O)O[C@]1(C(=O)COC(=O)CN(C)C)CC[C@H]2[C@@H]3CCC4=CC(=O)CCC4=C3[C@@H](c3ccc(N(C)C)cc3)C[C@@]21C [Compound 133, 17α-Acetoxy-1-[4-(N,N-dimethylamino)phenyl]-21-(2′-N,N-dimethylamino)acetoxy-19-norpregna-4,9-diene-3,20-dione]								13	95	82
17α-Acetoxy-11β-[4-(N,N-diethylamino)phenyl]-21-thiocyanato-19-norpregna-4,9-diene-3,20-dione [Compound 138]								14	57	63
COCC1(C(C)=O)CCC2C3CCC4=CC(=O)CCC4=C3C(c3ccc(N(C)C)cc3)CC21C (stereo not drawn) [Compound 91, 17α-Methoxymethyl-11β-[4-(N,N-methylamino)phenyl]-19-norpregna-4,9-diene-3,20-dione]							binding affinities greater than that observed for the standard	59	inactive	171
CC(=O)O[C@]1(C(C)=O)CC[C@H]2[C@@H]3CCC4=CC(=O)CCC4=C3[C@@H](c3ccc(N4CCOCC4)cc3)C[C@@]21C [Compound 72, 17α-Acetoxy-11β-[4-(N-Morpholino)phenyl]-19-norpregna-4,9-diene-3,20-dione]							binding affinities greater than that observed for the standard	110	35	109
